The values that follow are results of earlier work, collected in patent publication US9744163B2, “Compositions of a polyorthoester and an aprotic solvent” (Heron Therapeutics, Inc., priority 2013, dated 2017).

Consider `CCOC(C)=O` [ethyl acetate], for which the “Water Miscibility (solubility in water)” value was “(8.3 g/100 ml)”.
